This note sets out measurements from patent US10301306B2, “Substituted dihydro-1H-pyrrolo[3,2-c]pyridin-4(5H)-ones as RIPK3 inhibitors” (BRISTOL-MYERS SQUIBB COMPANY, priority 2014, dated 2019).

The term IC50 denotes the concentration at which inhibition is half-maximal.

A value given as a limit tells only on which side of the number the result lay.

The target in the first assay is RIPK3 (Homo sapiens (Human), UniProt Q9Y572). The assay is described as follows: RIPK3 HTRF Kinase Assay. It counts as binding. Conditions: RIPK3 1 nM; HTRF probe 23 nM; 60 min at room temperature; read-out: IC50 for Inhibition of RIPK3. (In general: TR-FRET usually uses a lanthanide donor and a delayed reading to cut background.)
Chain of RIPK3 (Q9Y572 whole entry, species assumed): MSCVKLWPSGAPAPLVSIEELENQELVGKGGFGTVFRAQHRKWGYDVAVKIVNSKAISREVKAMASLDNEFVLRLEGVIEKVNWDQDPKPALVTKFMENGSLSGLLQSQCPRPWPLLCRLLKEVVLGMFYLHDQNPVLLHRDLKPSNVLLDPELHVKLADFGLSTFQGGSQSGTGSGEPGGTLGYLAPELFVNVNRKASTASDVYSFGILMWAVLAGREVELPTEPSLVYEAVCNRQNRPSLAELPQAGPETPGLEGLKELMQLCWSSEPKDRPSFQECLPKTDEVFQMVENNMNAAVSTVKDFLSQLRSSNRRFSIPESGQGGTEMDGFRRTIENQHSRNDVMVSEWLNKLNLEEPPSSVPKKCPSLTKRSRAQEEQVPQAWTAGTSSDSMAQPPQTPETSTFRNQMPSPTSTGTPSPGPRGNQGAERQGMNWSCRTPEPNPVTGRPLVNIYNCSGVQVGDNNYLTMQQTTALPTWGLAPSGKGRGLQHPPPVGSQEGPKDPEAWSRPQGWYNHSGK
For the compound `Cc1cc(Cn2c3c(c(-c4ccc(F)cc4)c2-c2ccncc2)C(=O)NCC3)no1` [Example 79], the IC50 was in the range of 31 to 100 nM.

For the compound `COc1ccncc1-c1c2c(n(Cc3ccc(F)cc3C#N)c1-c1ccncc1)CCNC2=O` [Example 131], the IC50 was 100 to 15000 nM.

Regarding `O=C1NCCc2c1c(-c1ccc(F)cc1)c(-c1ccncc1)n2CC1CCNCC1` [Example 30], the IC50 was in the range of 100 to 15000 nM.

Consider `N#Cc1cc(F)ccc1Cn1c2c(c(/C=C/c3ccccc3)c1-c1ccncc1)C(=O)NCC2` [Example 145], for which the IC50 lay in the range of 31 to 100 nM.

As to `COc1ccc(C(=O)Nc2cc(-c3c(-c4ccc(F)cc4)c4c(n3CC3CCOCC3)CCNC4=O)ccn2)cc1` [Example 89], the half-maximal inhibitory concentration (IC50) lay within 100 to 15000 nM.

For the compound `O=C1NCCc2c1c(-c1cccc(OC(F)(F)F)c1)c(-c1ccncc1)n2CC1CCOCC1` [Example 110], the IC50 lay in the range of 100 to 15000 nM.

For `CS(=O)(=O)c1ccc(Cn2c3c(c(-c4ccc(F)cc4)c2-c2ccncc2)C(=O)NCC3)cc1` [Example 42], the IC50 fell in the range of 100 to 15000 nM.

For `Cc1ccc(-c2c3c(n(Cc4ccc(Cl)cc4F)c2-c2ccncc2)CCNC3=O)s1` [Example 164], the IC50 is under 30 nM.

On to `COc1cc(-c2c3c(n(Cc4ccc(F)cc4C#N)c2-c2ccncc2)CCNC3=O)ccn1` [Example 140], for which the IC50 is under 30 nM.

Turning to `N#Cc1cccc(F)c1Cn1c2c(c(-c3ccc(F)cc3)c1-c1ccncc1)C(=O)NCC2` [Example 77], the IC50 was under 30 nM.

Consider `Cc1cc(Cn2c3c(c(-c4cccc(NC(=O)Cc5ccccc5)c4)c2-c2ccncc2)C(=O)NCC3)n(C)n1` [Example 175], for which the IC50 was in the range of 100 to 15000 nM.

On to `COc1ccc(-c2c3c(n(CC4CCOCC4)c2-c2ccncc2)CCNC3=O)cc1` [Example 104], for which the IC50 fell in the range of 100 to 15000 nM.

Consider `Cc1cc(Cn2c3c(c(-c4ccc(F)cc4)c2-c2ccncc2)C(=O)NCC3)ccc1F` [Example 46], for which the IC50 is under 30 nM.

On to `N#Cc1cc(F)ccc1Cn1c2c(c(-c3ccc(OCc4ccccc4)cc3)c1-c1ccncc1)C(=O)NCC2` [Example 135], for which the half-inhibitory concentration (IC50) was 100 to 15000 nM.

As to `O=C(Nc1cc(-c2c(-c3ccc(F)cc3)c3c(n2CC2CCOCC2)CCNC3=O)ccn1)c1ccccc1` [Example 86], the IC50 fell in the range of 100 to 15000 nM.

For `CC1(C)CNC(=O)c2c1[nH]c(-c1ccncc1)c2-c1ccc(F)cc1` [Example 153, 3-(4-Fluorophenyl)-7,7-dimethyl-2-(pyridin-4-yl)-6,7-dihydro-1H-pyrrolo[3,2-c]pyridin-4(5H)-one], the IC50 was under 30 nM.

For `CC(=O)Nc1cccc(-c2c(-c3ccc(F)cc3)c3c(n2Cc2ccc(F)cc2C#N)CCNC3=O)c1` [Example 21], the IC50 was 100 to 15000 nM.

Turning to `COc1ncc(-c2c(-c3ccc(F)cc3)c3c(n2Cc2ccc(F)cc2C#N)CCNC3=O)cn1` [Example 26], the IC50 fell in the range of 100 to 15000 nM.

For `O=C1NCCc2c1c(-c1cccc(-c3ccccc3)c1)c(-c1ccncc1)n2CC1CCOCC1` [Example 5, 3-([1,1′-Biphenyl]-3-yl)-2-(pyridin-4-yl)-1-((tetrahydro-2H-pyran-4-yl)methyl)-6,7-dihydro-1H-pyrrolo[3,2-c]pyridin-4(5H)-one], the IC50 was 100 to 15000 nM.

In the case of `CCC(=O)Nc1cc(-c2c(-c3ccc(F)cc3)c3c(n2CC2CCOCC2)CCNC3=O)ccn1` [Example 90], the IC50 was 100 to 15000 nM.

`Cc1cc(Cn2c3c(c(-c4cccc(NC(=O)OC(C)(C)C)c4)c2-c2ccncc2)C(=O)NCC3)n(C)n1` [Example 171]: the IC50 was 31 to 100 nM.

For `Cc1cc(Cn2c3c(c(-c4cccc(CCC5CCCCC5)c4)c2-c2ccncc2)C(=O)NCC3)n(C)n1` [Example 181], the IC50 was 100 to 15000 nM.

For `CCn1c2c(c(-c3ccc(F)cc3)c1-c1ccncc1)C(=O)NCC2` [Example 62], the IC50 was in the range of 100 to 15000 nM.

Turning to `O=C1NCCc2c1c(-c1ccc(F)cc1)c(-c1ccncc1)n2Cc1ccc(OC(F)(F)F)c(Cl)c1` [Example 40], the IC50 was 100 to 15000 nM.

In the case of `O=C1NCCc2c1c(-c1ccc(F)cc1)c(-c1ccncc1)n2CCO` [Example 82], the IC50 lay in the range of 100 to 15000 nM.

For `CCC(=O)Nc1cc(-c2c(-c3ccc(F)cc3)c3c(=O)[nH]ccc3n2Cc2ccc(C(F)(F)F)cc2F)ccn1` [Example 156, N-(4-(1-(2-Fluoro-4-(trifluoromethyl)benzyl)-3-(4-fluorophenyl)-4-oxo-4,5-dihydro-1H-pyrrolo[3,2-c]pyridin-2-yl)pyridin-2-yl)propionamide], the IC50 was under 30 nM.

As for `COc1ccc(-c2c3c(n(CC4CCOCC4)c2-c2ccncc2)CCNC3=O)cn1` [Example 107], the IC50 is 100 to 15000 nM.

In the case of `Cc1cc(Cn2c3c(c(-c4cccc(NC=O)c4)c2-c2ccncc2)C(=O)NCC3)n(C)n1` [Example 178], the IC50 was 100 to 15000 nM.

With `N#Cc1cc(F)ccc1Cn1c2c(c(-c3ccsc3)c1-c1ccncc1)C(=O)NCC2` [Example 128], the IC50 was under 30 nM.

As for `Cc1cc(Cn2c3c(c(-c4cccc(-c5c(C)noc5C)c4)c2-c2ccncc2)C(=O)NCC3)n(C)n1` [Example 173], the IC50 lay within 100 to 15000 nM.

Take `COc1cc(F)cc(-c2c3c(n(Cc4ccc(F)cc4C#N)c2-c2ccncc2)CCNC3=O)c1` [Example 117]: the IC50 fell in the range of 31 to 100 nM.

Take `Cn1ccc2cc(-c3c4c(n(Cc5ccc(F)cc5C#N)c3-c3ccncc3)CCNC4=O)ccc21` [Example 118]: the IC50 is 31 to 100 nM.

Regarding `N#Cc1ccc(Cn2c3c(c(-c4ccc(F)cc4)c2-c2ccncc2)C(=O)NCC3)c(F)c1` [Example 51], the 50% inhibitory concentration (IC50) was under 30 nM.

On to `CS(=O)(=O)Nc1cc(-c2c(-c3ccc(F)cc3)c3c(n2CC2CCOCC2)CCNC3=O)ccn1` [Example 92], for which the IC50 lay in the range of 100 to 15000 nM.

Take `Cc1cc(Cn2c3c(c(-c4cccc(NC(=O)C5CC5)c4)c2-c2ccncc2)C(=O)NCC3)n(C)n1` [Example 177]: the IC50 fell in the range of 100 to 15000 nM.

`CCCC(=O)Nc1cccc(-c2c3c(n(Cc4ccc(Cl)cc4F)c2-c2ccncc2)CCNC3=O)c1` [Example 170]: the IC50 was 100 to 15000 nM.

As to `CCCC(=O)Nc1cc(-c2c(-c3ccc(F)cc3)c3c(n2CC2CCOCC2)CCNC3=O)ccn1` [Example 94], the IC50 was 100 to 15000 nM.

On to `CC(C)(C)Cn1c2c(c(-c3ccc(F)cc3)c1-c1ccncc1)C(=O)NCC2` [Example 61], for which the IC50 was in the range of 100 to 15000 nM.

`N#Cc1cc(F)c(Cn2c3c(c(-c4ccc(F)cc4)c2-c2ccncc2)C(=O)NCC3)c(F)c1` [Example 84]: the IC50 was under 30 nM.

`CCNC(=O)Nc1cc(-c2c(-c3ccc(F)cc3)c3c(n2CC2CCOCC2)CCNC3=O)ccn1` [Example 97]: the IC50 lay within 100 to 15000 nM.

`COCC(=O)Nc1cc(-c2c(-c3ccc(F)cc3)c3c(n2Cc2ccc(C(F)(F)F)cc2F)CCNC3=O)ccn1` [Example 150]: the 50% inhibitory concentration (IC50) lay in the range of 31 to 100 nM.

Regarding `CCC(=O)Nc1cccc(-c2c3c(n(Cc4cc(C)nn4C)c2-c2ccncc2)CCNC3=O)c1` [Example 179], the IC50 was 100 to 15000 nM.

Regarding `Cc1noc(C)c1Cn1c2c(c(-c3ccc(F)cc3)c1-c1ccncc1)C(=O)NCC2` [Example 50], the IC50 was 100 to 15000 nM.

Take `CC(=O)Nc1cc(-c2c(-c3ccc(F)cc3)c3c(n2Cc2ccc(C(F)(F)F)cc2F)CCNC3=O)ccn1` [Example 101]: the IC50 is under 30 nM.

With `Cc1cc(-c2c3c(n(Cc4ccc(Cl)cc4F)c2-c2ccncc2)CCNC3=O)ccn1` [Example 168], the IC50 was 100 to 15000 nM.

For the compound `Cc1nc(Cn2c3c(c(-c4ccc(F)cc4)c2-c2ccncc2)C(=O)NCC3)cs1` [Example 60], the IC50 lay within 31 to 100 nM.

As for `N#Cc1cc(F)ccc1Cn1c2c(c(-c3ccc(OC(F)(F)F)cc3)c1-c1ccncc1)C(=O)NCC2` [Example 122], the IC50 lay within 100 to 15000 nM.

Turning to `O=C1NCCc2c1c(-c1ccc(F)cc1)c(-c1ccncc1)n2Cc1c(F)cc(F)cc1F` [Example 71], the IC50 is under 30 nM.

Turning to `Cn1c(-c2ccncc2)c(-c2ccc(F)cc2)c2c1C(C)(C)CNC2=O` [Example 154, 3-(4-Fluorophenyl)-1,7,7-trimethyl-2-(pyridin-4-yl)-6,7-dihydro-1H-pyrrolo[3,2-c]pyridin-4(5H)-one], the IC50 is 100 to 15000 nM.

`O=C1NCCc2c1c(-c1ccc(F)cc1)c(-c1ccnc(Cl)c1)n2Cc1ccc(C(F)(F)F)cc1F` [Example 6, 2-(2-Chloropyridin-4-yl)-1-(2-fluoro-4-(trifluoromethyl)benzyl)-3-(4-fluorophenyl)-6,7-dihydro-1H-pyrrolo[3,2-c]pyridin-4(5H)-one]: the IC50 was 100 to 15000 nM.

For the compound `O=C1NCCc2c1c(-c1ccc(F)cc1)c(-c1ccncc1)n2CC1CCCC1` [Example 78], the IC50 is under 30 nM.

In the case of `O=C1NCCc2c1c(-c1ccc(F)cc1)c(-c1ccncc1)n2Cc1ccncn1` [Example 72], the IC50 lay in the range of 100 to 15000 nM.

As to `CC(=O)Nc1cc(-c2c(-c3ccc(F)cc3)c3c(n2CC2CCOCC2)CCNC3=O)ccn1` [Example 3, N-(4-(3-(4-Fluorophenyl)-4-oxo-1-((tetrahydro-2H-pyran-4-yl)methyl)-4,5,6,7-tetrahydro-1H-pyrrolo[3,2-c]pyridin-2-yl)pyridin-2-yl)acetamide], the IC50 was 100 to 15000 nM.

As for `O=C1NCCc2c1c(-c1ccc(F)cc1)c(-c1ccncc1)n2Cc1ccncc1` [Example 66], the IC50 was under 30 nM.

For the compound `Nc1cc(-c2c(-c3ccc(F)cc3)c3c(n2Cc2ccc(C(F)(F)F)cc2F)CCNC3=O)ccn1` [Example 12, 2-(2-Aminopyridin-4-yl)-1-(2-fluoro-4-(trifluoromethyl)benzyl)-3-(4-fluorophenyl)-6,7-dihydro-1H-pyrrolo[3,2-c]pyridin-4(5H)-one], the IC50 lay in the range of 100 to 15000 nM.

The same assay, now with this note: read-out: IC50 for Inhibition of RIPK3.
As for `N#Cc1cc(F)ccc1Cn1c2c(c(-c3ccccc3-c3ccccc3)c1-c1ccncc1)C(=O)NCC2` [Example 125], the IC50 lay in the range of 100 to 15000 nM.

Turning to `O=C1NCCc2c1c(-c1cccnc1)c(-c1ccncc1)n2CC1CCOCC1` [Example 108], the IC50 was 100 to 15000 nM.

Turning to `N#Cc1cc(F)ccc1Cn1c2c(c(-c3cccnc3)c1-c1ccncc1)C(=O)NCC2` [Example 119], the IC50 was in the range of 31 to 100 nM.

Consider `N#Cc1cc(F)ccc1Cn1c2c(c(-c3ccc(F)cc3)c1-c1ccnc(F)c1)C(=O)NCC2` [Example 18], for which the IC50 was in the range of 100 to 15000 nM.
